Test results as given in US7709653B2, “Asymmetric cyanine compounds, their preparation methods and their uses” (Shenzhen Mindray Bio-Medical Electronics Co. Ltd., priority 2008, dated 2010).

Key:
[1] = tested on: soft-shelled turtle (Trionyx sinensis) liver RNA; assay: Fluorescence intensity of dye in PBS containing soft-shelled turtle liver RNA; type: binding; settings: for Relative fluorescence intensity, after binding RNA / Maximum excitation peak of the dye/RNA complexes / Relative fluorescence intensity, before binding RNA: in PBS; for Relative fluorescence intensity, after binding RNA: bound with soft-shelled turtle liver RNA; for Maximum excitation peak of the dye/RNA complexes: room temperature; for Relative fluorescence intensity, before binding RNA: without RNA; for Ratio of increase in fluorescence (after vs before binding): soft-shelled turtle liver RNA in PBS; for Fluorescence emission strength of the dye/RNA complexes: with increase in RNA concentration / on complex formation, PBS
Protocol: A certain amount of Dye-1 was accurately weighed and sufficiently dissolved in 2.5 mL of methanol/ethylene glycol (50:50 vol/vol) to prepare a dye solution at a concentration of 5 mM. This solution was filtered before use. Separate amounts of freshly prepared soft-shelled turtle (Trionyx sinensis) liver RNA were weighed and dissolved in PBS to obtain PBS buffers containing 100 μg/mL, 30 μg/mL, 10 μg/mL, 3 μg/mL of RNA. 2 μL aliquots of the prepared 5 mM dye solution were accurately measured and respectively combined in 1 mL of PBS with 1 μL of the PBS buffers containing different concentrations of RNA. After reacting for a period of time, the complexes were detected for their emission spectra at the selected excitation wavelength (which the skilled artisan would understand is the maximum absorption wavelength of the dye. See, e.g., Table 1). The detection temperature was at room temperature. The instrument used was fluorescence spectrophotometer Model FL-4500. […] The detection procedures followed were those described in Example 10 and Example 11. The fluorescence spectra for the complexes of Dye-3 and different concentrations of DNA or RNA are shown in FIG. 6 and FIG. 7, respectively. The comparisons of fluorescence intensity for Dye-3 before and after it is bound with DNA or with RNA in PBS are shown in FIG. 8 and FIG. 9, respectively.

[2] = tested on: salmon sperm DNA; assay: Fluorescence intensity of dye in PBS containing salmon sperm DNA; type: binding; settings: for Relative fluorescence intensity, after binding DNA: bound with salmon sperm DNA; for Maximum excitation peak of the dye/DNA complexes: room temperature; for Ratio of increase in fluorescence (after vs before binding): salmon sperm DNA in PBS; for Fluorescence emission strength of the dye/DNA complexes: with increase in DNA concentration / on complex formation, PBS
Protocol: A certain amount of Dye-1 was accurately weighed and sufficiently dissolved in 2.5 mL of methanol/ethylene glycol (50:50 vol/vol) to prepare a dye solution at a concentration of 5 mM. This solution was filtered before use. Separate amounts of salmon sperm DNA were weighed and dissolved in PBS to obtain PBS buffers containing 3 mg/mL, 1 mg/mL, 0.3 mg/mL, 0.1 mg/mL of DNA. 2 μL aliquots of the prepared 5 mM dye solution were accurately measured and respectively combined in 1 mL of PBS with 1 μL of the PBS buffers containing different concentrations of DNA. After reacting for a period of time, the complexes were detected for their emission spectra at the selected excitation wavelength (which the skilled artisan would understand is the maximum absorption wavelength of the dye. See, e.g., Table 1). The detection was performed at room temperature. The instrument used was fluorescence spectrophotometer Model FL-4500. […] The detection procedures followed were those described in Example 10 and Example 11. The fluorescence spectra for the complexes of Dye-3 and different concentrations of DNA or RNA are shown in FIG. 6 and FIG. 7, respectively. The comparisons of fluorescence intensity for Dye-3 before and after it is bound with DNA or with RNA in PBS are shown in FIG. 8 and FIG. 9, respectively.

[3] = Detection of the absorption peak of the fluorescent dyes (UV-visible spectrophotometer, after standing at different temperatures); type: physicochemical; settings: for Maximum absorption peak of the compounds disclosed: methanol/ethylene glycol (50:50 vol/vol), light-proof; for Maximum absorption peak: methanol/ethylene glycol, given with the synthesis example
Protocol: A certain amount of an asymmetric cyanine compound was accurately weighed and sufficiently dissolved in 2.5 mL of methanol/ethylene glycol solution (50:50 vol/vol) to prepare a fluorescent dye solution at a concentration of 5 mM. Four parts of 5 μL aliquots of the fluorescent dye solution were each diluted in 2 mL of methanol/ethylene glycol solution (50:50 vol/vol) and were let stand under a hermetic and light-proof condition at 0° C., 20° C., 40° C. and 60° C. respectively for 48 hours. The maximum absorption peak was detected using a ultraviolet-visible spectrophotometer.

[4] = after standing at 0° C. for 48 hours
[5] = after standing at 20° C. for 48 hours
[6] = after standing at 40° C. for 48 hours
[7] = after standing at 60° C. for 48 hours

| Relative fluorescence intensity, after binding RNA [1] | Relative fluorescence intensity, before binding RNA [1] | Ratio of increase in fluorescence (after vs before binding) [1] | Relative fluorescence intensity, after binding DNA ([2]; in PBS) | Ratio of increase in fluorescence (after vs before binding) [2] | Maximum absorption peak of the compounds disclosed [3, 4] [nm] | Maximum absorption peak of the compounds disclosed [3, 5] [nm] | Maximum absorption peak of the compounds disclosed [3, 6] [nm] | Maximum absorption peak of the compounds disclosed [3, 7] [nm] | Maximum absorption peak [3] [nm] | Relative fluorescence intensity, before binding DNA ([2]; in PBS, without salmon sperm DNA) | Shift of the position of the maximum absorption peak as a function of temperature ([3]; 0° C., 20° C., 40° C. and 60° C. for 48 hours) | Structure (SMILES) | Maximum excitation peak of the dye/RNA complexes [1] | Fluorescence emission strength of the dye/RNA complexes [1] | Maximum excitation peak of the dye/DNA complexes ([2]; in PBS) | Fluorescence emission strength of the dye/DNA complexes [2] |
| --- | --- | --- | --- | --- | --- | --- | --- | --- | --- | --- | --- | --- | --- | --- | --- | --- |
| 16.79 | 0.75 | 22.4 | 63.29 | 84 | 638 | 638 | 638 | 638 | 638 |  |  | OCCN1C=C/C(=C\C=C\c2sc3ccc(Cl)cc3[n+]2CCO)c2ccccc21 [Dye-1] | about 660 nm | increased rapidly | about 660 nm | increased rapidly |
|  |  |  |  |  | 639 | 639 | 639 | 639 | 639 |  |  | CCN1C=C/C(=C\C=C\c2sc3ccccc3[n+]2CCOC(C)=O)c2ccc(Cl)cc21 [Dye-2] |  |  |  |  |
| 23.94 | 0.67 | 35.7 | 97.56 | 146 |  |  |  |  | 640 | 0.67 | did not shift | CC[n+]1c(/C=C/C=C2\C=CN(CCO)c3ccccc32)sc2ccc(Cl)cc21 [Dye-3] | > 655 nm | increased rapidly | > 655 nm | increased rapidly |
|  |  |  |  |  | 639 | 639 | 639 | 639 | 639 |  |  | CCN1C=C/C(=C\C=C\c2sc3ccccc3[n+]2CCO)c2ccc(Cl)cc21 [Dye-4] |  |  |  |  |
|  |  |  |  |  | 640 | 640 | 640 | 640 | 640 |  |  | CC[n+]1c(/C=C/C=C2\C=CN(CCO)c3ccccc32)sc2ccc(Br)cc21 [Dye-5] |  |  |  |  |
|  |  |  |  |  | 638 | 638 | 638 | 638 | 638 |  |  | OCCN1C=C/C(=C\C=C\c2sc3ccccc3[n+]2CCO)c2ccc(Br)cc21 [Dye-6] |  |  |  |  |
